Laboratory results as given in US11884686B2, “Chelate compounds” (priority 2016, dated 2024).
“Also recorded” adds a separate entry of the source.

How the values were obtained:
Format in all cases: physicochemical
[1] = Dissociation kinetics via Cu2+ transmetallation (UV-Vis absorbance); conditions: for overall kinetic inertness: Cu2+ and Zn2+ transmetallation, all experimental conditions; for nature of the kinetic dissociation curve, Cu2+ exchange: UV-Vis absorbance at 300 nm, all pH and Cu2+ concentrations assessed; for kobs1 / kobs2: 25° C., 0.2 mM chelate; for conversion of Mn chelate during transmetallation: competing Cu2+, FIGS. 9 and 10
Description: Kinetic inertness was evaluated at slightly acidic pH due to the slow rate of dissociation of the paramagnetic complex at physiological pH and to the potential hydrolysis of the metal ions at the concentrations used for the experiments and at pH values close to physiological.
The dissociation kinetics of the prior art Mn Chelate, Mn Chelate 4 and Mn Chelate 3 at a concentration of 0.2 mM was assessed via Cu^2+ transmetallation recording the time-dependent change of the UV-Vis absorbance in the presence of an excess of competing metal ion (10 and 40 equivalents of Cu^2+); at 25° C. and different pH (pH: 5.0; 5.2; 5.4). For all assessments, the reaction mixture contained 0.15 M NaCl; 50 mM NMP. The ? for the acquisition of the UV-Vis spectra was selected based on the difference between the observed absorbance for the Mn(II) based chelates (e.g., prior art Mn Chelate, Mn Chelate 3 and Mn Chelate 4) and the newly formed Cu^2+-complex in order to have the best differentiation between the two chemical species. The UV-Vis spectra were acquired at ? =300 nm on a Perkin-Elmer Lambda 19 spectrophotometer. Indeed, the displacement of Mn(II) ion induced by Cu^2+ led to an increase of the observed absorbance at ? =300 nm for all Mn(II) based chelates in all experimental conditions. This increase is due the formation of the Cu^2+-complex.
For any of the transmetallation experiments carried out with the prior art Mn Chelate (e.g., at different pH; different Zn^2+ or Cu^2+ concentration) it was evident that the variation of the relaxation rate T1 (for the Zn^2+-exchange; FIG. 4) or the variation of the UV-Vis absorbance (for the Cu^2+-exchange; FIG. 5) caused by competing metal ion was a “single phase” process better described as a mono-exponential function. […] The rate of dissociation described by kobs was calculated via equation (1) where [MnL]tot is the total concentration of Mn(II) based chelates and t is the observation time.
These biphasic kinetic curves could be mathematically well fitted with the biexponential equation (2) where A is the observed absorbance; b, A1 and A2 are constants specific for the biphasic dissociation process for a Mn(II) based chelate; kobs1 and kobs2 are the rate constants describing the biphasic dissociation and t is the observation time. A=b−A1e^−k^obs1^t−A2e^−k^obs2t (Equation 2)
The rates of the biphasic dissociation for Mn Chelate 3 and Mn Chelate 4 described by kobs1 and kobs2 and of the monophasic dissociation for the prior art Mn Chelate described by kobs were calculated via equation (2) and (1) respectively for the different experimental conditions utilized in the set of experiments.
From the qualitative comparison of the kinetic curves and preliminary kobs it was evident that Mn Chelate 3 and Mn Chelate 4 dissociate with a different mechanism described by a biexponential function and at a slower rate compared to the prior art Mn Chelate. To quantitatively compare the kinetic inertness of these Mn(II) based chelates, the direct comparison of the evolution of the UV-Vis absorbance at 300 nm was recorded for the Cu^2+ exchange reaction. Direct comparison of the UV-Vis absorbance allowed quantification of the conversion of the Mn(II) based chelates into Cu^2+ based chelates during the transmetallation reaction which can be correlated to the kinetic inertness of the Mn(II) complex. The “conversion” was calculated following equation (3), where At is the absorbance at a time t (or end of the reaction), A0 is the absorbance at time zero (or beginning of the acquisition) and Aeq is the absorbance at the equilibrium.

[2] = In vitro proton relaxivity in human serum; conditions: 60 MHz, 40° C.
Description: Both the longitudinal and transverse relaxation times were measured in human serum (BioreclamationIVT, Cat #HMSRM-M) to reflect the efficiency of the Mn(II) based chelates in an environment close to physiological. The relaxivity assessment was carried out at a concentration ranging from 5 to 0 mM Mn(II), at 40° C. using a Minispec Mq benchtop NMR relaxometer (Bruker Instruments, Rheinstetten, Germany) operating at 60 MHz (1.4 T) with an inversion recovery pulse sequence. The longitudinal and transverse relaxivities of the complexes (e.g., r1 and r2 respectively) were calculated by plotting the reciprocal of their relaxation time versus the manganese concentration as determined via ICP-MS (Spectro Arcos FHS12, S/N 10003910 or S/N 12006120) for each Mn(II) based chelates. The dependence of T1 by B0 (i.e., magnetic field) applied was assessed via the acquisition of ^1H Nuclear Magnetic Relaxation Dispersion (NMRD) profiles. A dedicated Stelar SMARTracer Fast Field Cycling relaxometer (0.01-10 MHz) and a Bruker WP80 NMR electromagnet adapted to variable field measurements (20-80 MHz) and controlled by a SMARTracer PC-NMR console was used to record the ^1H NMRD profiles over an extended range of Larmor Frequencies (from 0.01 to 80 MHz). The temperature was monitored by a VTC91 temperature control unit and maintained by a gas flow. The temperature was determined by previous calibration with a Pt resistance temperature probe. High field relaxivities were measured on a Bruker AVANCE NMR spectrometer at 400 MHz. A total of 25 data points per NMRD profile were recorded at each temperature, pH 6.9 and with a manganese concentration in the samples of 6.99, 6.78 and 4.45 mM for the prior art Mn Chelate, Mn Chelate 4 and Mn Chelate 3, respectively. The concentration of Mn(II) in all samples was verified by Bulk Magnetic Susceptibility (BMS) measurements. Relaxivity was computed by subtracting the relaxation rate of the medium (distilled water) from the relaxation rate of the Mn(II) complex solution at each field strength and dividing the difference by the manganese concentration verified by BMS measurements.
The linear fit (R2>0.99 for all compounds examined) of 1/T1 and 1/T2 as a function of Mn concentration generated the r1 or r2 values reported in Table 4 for human serum.

[3] = Water solubility of Mn(II) based chelates; conditions: thermodynamic from solid, 25° C.
Description: The solubility of Mn(II) based chelates was confirmed by dissolving purified Mn(II) based chelates ( 99% purity) in a prescribed volume of solvent (Millipore water 18.2 MegaOhm from a Millipore BioCell Benchtop unit) to provide a solution of given volume. Solutions were visually inspected for homogeneity and filtered through a 0.45 um PTFE filter membrane if necessary. The assessment was carried out at 25° C. Final sample concentrations were confirmed by determination of final Mn(II) concentration via ICP-MS (Spectro Arcos FHS[…] 10003910 or S/N 12006120).

Structure (SMILES)	overall kinetic inertness [1]	nature of the kinetic dissociation curve, Cu2+ exchange [1]	kobs1 ([1]; pH = 5.0, CCu2+ 0.002 M)	kobs2 ([1]; pH = 5.0, CCu2+ 0.002 M)	kobs1 ([1]; pH = 5.0, CCu2+ 0.008 M)	kobs2 ([1]; pH = 5.0, CCu2+ 0.008 M)	kobs1 ([1]; pH = 5.2, CCu2+ 0.002 M)	kobs2 ([1]; pH = 5.2, CCu2+ 0.002 M)	r1 (longitudinal relaxivity) [2]	solubility [3]	conversion of Mn chelate during transmetallation [1]	kobs1 ([1]; pH = 5.4, CCu2+ 0.002 M)	kobs2 ([1]; pH = 5.4, CCu2+ 0.002 M)
CN(C[C@H](O)[C@@H](O)[C@H](O)[C@H](O)CO)C(=O)CCCN1CCN2Cc3cccc(n3)CN(CC1)C(CCC(=O)N(C)C[C@H](O)[C@@H](O)[C@H](O)[C@H](O)CO)C(=O)[O][Mn][O]C(=O)C2CCC(=O)N(C)C[C@H](O)[C@@H](O)[C@H](O)[C@H](O)CO (stereo partly shown) [Mn Chelate 3]	evident improvement in overall kinetic inertness	biphasic nature	0.483 min⁻¹	0.0023 min⁻¹	0.378 min⁻¹	0.0024 min⁻¹	0.303 min⁻¹	0.0015 min⁻¹	8.0 mM⁻¹ s⁻¹	> 500 mM			
CN1CCN2Cc3cccc(n3)CN(CC1)C(CCC(=O)N(C)C[C@H](O)[C@@H](O)[C@H](O)[C@H](O)CO)C(=O)[O][Mn][O]C(=O)C2CCC(=O)N(C)C[C@H](O)[C@@H](O)[C@H](O)[C@H](O)CO (stereo partly shown) [Mn Chelate 4]	evident improvement in overall kinetic inertness; also recorded: most kinetically inert compound examined	biphasic nature	0.340 min⁻¹	0.0013 min⁻¹	0.190 min⁻¹	0.0009 min⁻¹	0.240 min⁻¹	0.0009 min⁻¹	5.3 mM⁻¹ s⁻¹	> 500 mM	dissociates even slower	0.201 min⁻¹	0.001 min⁻¹
CN1CCN2CC(=O)[O][Mn][O]C(=O)CN(CC1)Cc1cccc(n1)C2 [Prior Art Mn Chelate, reference compound]		single phase	0.034 min⁻¹		0.035 min⁻¹		0.022 min⁻¹		3.0 mM⁻¹ s⁻¹	> 500 mM	reaches a full conversion at much shorter time point than Mn Chelate 3	0.017 min⁻¹	
